Key:
[1] = xn = mol fraction of the nth substance listed; conditions: 101.3 kPa, Liquid
[2] = molar heat capacity at constant pressure; conditions: 298.15 K; 101.33 kPa; Liquid; Flow calorimetry
[3] = 101.3 kPa, Liquid

Cc1ccc(C)cc1 [1,4-dimethylbenzene] + N#Cc1ccccc1
[1], x2 = 0
Conditions | mass density [kg/m3]
298.15 K | 856.48
308.15 K | 846.98

COc1ccccc1 [anisole]
Conditions | molar heat capacity at constant pressure [J/K/mol]
[2] | 191.54

[3]
Conditions | mass density [kg/m3]
298.15 K | 988.98
308.15 K | 978.7

N#Cc1ccccc1 [benzonitrile] + Cc1ccc(C)cc1
[1], 298.15 K, Flow calorimetry
Conditions | excess molar heat capacity [J/K/mol]
x1 = 0.0349 | 0.303
x1 = 0.0918 | 0.681
x1 = 0.2035 | 1.281
x1 = 0.2559 | 1.362
x1 = 0.3682 | 1.534
x1 = 0.4313 | 1.443
x1 = 0.5014 | 1.374
x1 = 0.5905 | 1.132
x1 = 0.6663 | 0.966
x1 = 0.7646 | 0.664
x1 = 0.8402 | 0.453
x1 = 0.9222 | 0.168
x1 = 0.9776 | 0.082

mass density [kg/m3], [1]
Conditions | x1 = 0.1009 | x1 = 0.2247 | x1 = 0.2938 | x1 = 0.4357 | x1 = 0.5627 | x1 = 0.6605 | x1 = 0.7646 | x1 = 0.8328 | x1 = 0.9439 | x1 = 1
298.15 K | 869.79 | 886.32 | 895.69 | 915.25 | 933.25 | 947.47 | 963.07 | 973.55 | 991.13 | 1000.25
308.15 K | 860.32 | 876.88 | 886.28 | 905.85 | 923.86 | 938.07 | 953.65 | 964.15 | 981.68 | 990.67

CC(C)c1ccccc1 [isopropylbenzene]
Conditions | molar heat capacity at constant pressure [J/K/mol]
[2] | 214.75

[3]
Conditions | mass density [kg/m3]
298.15 K | 857.41
308.15 K | 848.26

N#Cc1ccccc1 [benzonitrile] + Cc1ccccc1C
[1]
Conditions | excess molar heat capacity, 298.15 K [J/K/mol] | mass density, 298.15 K [kg/m3] | mass density, 308.15 K [kg/m3]
x1 = 0.0394 | 0.448 | – | –
x1 = 0.0781 | 0.829 | – | –
x1 = 0.0815 | – | 884.98 | 875.72
x1 = 0.1262 | – | 890.21 | 881
x1 = 0.1398 | 1.273 | – | –
x1 = 0.1604 | – | 894.21 | 884.95
x1 = 0.2299 | 1.689 | – | –
x1 = 0.2579 | – | 905.68 | 896.47
x1 = 0.2803 | 1.799 | – | –
x1 = 0.3687 | 1.875 | – | –
x1 = 0.4054 | – | 923.32 | 914.01
x1 = 0.4391 | 1.792 | – | –
x1 = 0.496 | – | 934.4 | 925.13
x1 = 0.5361 | – | 939.32 | 929.98
x1 = 0.5364 | 1.592 | – | –
x1 = 0.611 | 1.376 | – | –
x1 = 0.6558 | – | 954.37 | 945.1
x1 = 0.6924 | – | 959.03 | 949.64
x1 = 0.7003 | 1.11 | – | –
x1 = 0.7684 | 0.826 | – | –
x1 = 0.8727 | 0.479 | – | –
x1 = 0.876 | – | 983.2 | 973.86
x1 = 0.9031 | – | 986.86 | 977.39
x1 = 0.9314 | 0.242 | – | –
x1 = 0.9608 | – | 994.84 | 985.42
x1 = 1 | – | 1000.25 | 990.67

— the NIST ThermoML archive (doi:10.1016/j.jct.2006.09.007)
